Results published in US20100286024A1, “Insulinotropic compounds and uses thereof” (priority 2005, published 2010).
No end group written: not given here.

What was measured:
[1] = biological target: DPP-IV (Homo sapiens, UniProt P27487); test: Dipeptidyl Peptidase IV (DPP-IV) digestion, stability by RP-HPLC (Example 10); assay type: in vitro ADME; settings: DPP-IV (isolated peptidase), PBS/TEthA, pH 7.5, 37°, DPP-IV, read-out: percentage of analogue remaining
Description: Their stabilities were monitored by RP-HPLC, noting the disappearance of the intact sequence and appearance of a species missing the N terminal dipeptide or similar fragment.

[2] = Control study: chemical stability in PBS/triethanolamine without DPP-IV; assay type: physicochemical; settings: PBS/TEthA, pH 7.5, 37°, no DPP-IV; for remaining at 22 h / remaining at 47 h: PBS/triethanolamine solution without DPP-IV, read-out: percentage of peptide remaining
Procedure: In the control study, peptides were incubated with PBS/triethanolamine solution in the absence of DPP-IV to measure their chemical stability.

[3] = tested on: beta TC-6 cell line; test: Insulin release assay (insulin ELISA); assay type: cell-based, mouse; settings: for Insulin release: 5 mM glucose, 30 minutes, Beta-TC-6 cells, cells only 1.37-3.67; for Activity of 3 μM of each peptide as percentage of insulin release by cells only / Activity of 15 μM of each peptide as percentage of insulin release by cells only: cells alone=100%
Procedure: This was derived from a pancreatic tumor (insulinoma) arising in a transgenic mouse.
Beta-TC-6 cells were purchased from A.T.C.C. (A.T.C.C. number CCL-11506; Manassas, Va., U.S.A.). Beta-TC-6 cells were cultured in Dulbecco's Modified Eagle's medium supplemented with 15% (v/v) heat-inactivated foetal bovine serum, 1% (v/v) glutamine, 0.45% (w/v) glucose and 0.15% (w/v) sodium bicarbonate at 37° C. in a humidified 5% CO2 atmosphere. Beta-TC-6 cells form islands and the monolayer never becomes confluent; cells were passaged at 70% confluence (7 days from seeding) at a subcultivation ratio of 1:4. The monolayer was disrupted from the surface of the culture flask with 0.25% (w/v) Trypsin-0.53 mM EDTA.
Beta-TC-6 cells were cultured in 12 well plates for between 4-8 days prior to use. Cells were cultured in Krebs-Ringer (10 mM Hepes, pH 7.4, 136 mM NaCl, 4.7 mM KCl and 1.25 mM MgSO4) supplemented with 5 mM glucose for 1 hr at 37° C. in a humidified 5% CO2 atmosphere. This medium was removed, cells washed with Krebs-Ringer. Beta-TC-6 cells were then cultured in 1 ml per well of Krebs-Ringer supplemented with 5 mM glucose and 0, 0.12, 0.6, 3 and 15 μM of peptide in duplicate for 30 minutes at 37° C. in a humidified 5% CO2 atmosphere. Medium was removed, diluted 1:5, and insulin concentration determined using an insulin ELISA kit (Mercodia, Uppsala, Sweden) according to the manufacturer's protocol. Beta-TC-6 cells were washed three times with ice-cold PBS and extracted into 0.5 ml lysis buffer (62.5 mM Tris, pH 7.5, and 1%, v/v, SDS) per well. Protein concentration was determined by Lowry assay. […] Only single-sided p values are shown.

[4] = biological target: GLP-1 receptor (mouse) (UniProt O35659)
[5] = tested on: dipeptidyl peptidase IV; test: DPP-IV assay (Example 5), HPLC/ES-MS; assay type: in vitro ADME; settings: 11 milliunits DPP-IV, 50 mM triethanolamine buffer pH 7.8, 37° C., HPLC and ES-MS
Procedure: J. Bailey, F. P. M. O'Harte, and P. R. Flatt. […] Biological Chemistry. 385, pp 169-177.
Briefly, 100-200 microgams of each peptide was dissolved in 0.5 ml of 50 mM triethanolamine buffer, pH 7.8. To this was added a 10 microlitre solution of 11 milliunits DPP-IV (Sigma) and the solutions incubated at 37° C. for up to 42 hours. […] The incubations were terminated by addition of 5 microlitres TFA to each tube and 50 microlitre of each were injected onto a reversed phase 4.6×250 mm C18 HPLC column, eluting a gradient of 20%-45% acetonitrile in 0.1% TFA/water over 25 minutes. […] After 42 hours, the 2 analogues slowly degraded to a product that gave a mass spectrum consistent with the mass of the 9-37 sequence, indicating longer term instability of the urea bond. This represented as much as 15% of the product by HPLC. This degradation appeared to be non-DPP-IV related, since samples without enzyme gave the same profile.

[6] = biological target: L-His-L-Ala-NH-NH-CH2-C(O)-Glu9-37 (SP007) (Homo sapiens)
[7] = biological target: L-His-L-NH-CH(CH3)-CH2-NH-O-CH2-C(O)-Glu9-37 (SP005) (Homo sapiens)
[8] = biological target: L-His-NH-NH-CH(CH3)-C(O)-Glu9-37 (SP008) (Homo sapiens)
[9] = biological target: L-His-NH-NH-CH2-C(O)-Glu9-37 (SP006) (Homo sapiens)
[10] = biological target: Native GLP-1 7-37 (Homo sapiens)

Chain of DPP-IV (P27487 whole entry, species assumed): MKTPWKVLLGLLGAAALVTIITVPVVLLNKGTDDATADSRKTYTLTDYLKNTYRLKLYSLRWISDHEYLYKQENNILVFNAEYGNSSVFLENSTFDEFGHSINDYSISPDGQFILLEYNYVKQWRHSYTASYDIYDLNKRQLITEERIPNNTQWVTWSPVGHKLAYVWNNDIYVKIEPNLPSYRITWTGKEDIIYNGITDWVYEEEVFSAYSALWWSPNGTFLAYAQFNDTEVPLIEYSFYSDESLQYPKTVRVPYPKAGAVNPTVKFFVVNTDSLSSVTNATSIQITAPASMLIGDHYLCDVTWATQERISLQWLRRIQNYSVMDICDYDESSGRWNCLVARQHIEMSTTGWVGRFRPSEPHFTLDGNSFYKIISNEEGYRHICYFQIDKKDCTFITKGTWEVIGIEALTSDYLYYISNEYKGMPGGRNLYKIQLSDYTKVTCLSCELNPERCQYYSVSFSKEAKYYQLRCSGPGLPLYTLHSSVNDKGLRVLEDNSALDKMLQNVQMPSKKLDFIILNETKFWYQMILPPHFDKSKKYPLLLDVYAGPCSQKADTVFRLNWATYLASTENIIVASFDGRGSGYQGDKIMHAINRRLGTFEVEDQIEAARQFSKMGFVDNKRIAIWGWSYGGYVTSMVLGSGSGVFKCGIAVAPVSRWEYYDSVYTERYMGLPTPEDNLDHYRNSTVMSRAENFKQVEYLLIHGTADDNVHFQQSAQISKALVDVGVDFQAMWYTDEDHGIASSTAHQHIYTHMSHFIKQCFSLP

CC[C@H](C)[C@H](NC(=O)[C@H](Cc1ccccc1)NC(=O)[C@H](CCC(=O)O)NC(=O)[C@H](CCCCN)NC(=O)[C@H](C)NC(=O)[C@H](C)NC(=O)[C@H](CCC(N)=O)NC(=O)CNC(=O)[C@H](CCC(=O)O)NC(=O)[C@H](CC(C)C)NC(=O)[C@H](Cc1ccc(O)cc1)NC(=O)[C@H](CO)NC(=O)[C@H](CO)NC(=O)[C@@H](NC(=O)[C@H](CC(=O)O)NC(=O)[C@H](CO)NC(=O)[C@@H](NC(=O)[C@H](Cc1ccccc1)NC(=O)[C@@H](NC(=O)CNC(=O)[C@H](CCC(=O)O)NC(=O)CONC[C@H](C)NC(=O)[C@@H](N)Cc1c[nH]cn1)[C@@H](C)O)[C@@H](C)O)C(C)C)C(=O)N[C@@H](C)C(=O)N[C@@H](Cc1c[nH]c2ccccc12)C(=O)N[C@@H](CC(C)C)C(=O)N[C@H](C(=O)N[C@@H](CCCCN)C(=O)NCC(=O)N[C@@H](CCCNC(=N)N)C(=O)NCC(=O)O)C(C)C [SP005, L-His-L-NH—CH(CH3)—CH2—NH—O—CH2—C(O)-Glu9-37]
remaining at 22 h [1]: 95%
remaining at 47 h [1]: 93%
remaining at 22 h [2]: 95%
remaining at 47 h ([2]; 47 hr): 89%
Insulin release ([3]; 3 μM peptide): 2.25 ng/min/mg
Activity of 3 μM of each peptide as percentage of insulin release by cells only ([3]; 3 μM peptide): 171 ± 53%
Insulin release ([3]; 15 μM peptide): 5.26 ng/min/mg
Activity of 15 μM of each peptide as percentage of insulin release by cells only ([3]; 15 μM peptide): 358 ± 128%

L-His-NH-NH-CH2-C(O)-Glu9-37 (SP006) (peptide)
Activity of 15 µM of each peptide as percentage of insulin release by cells only (beta TC-6 cells) (% of insulin release by cells only) [4]: 330

Glu Gly Thr Phe Thr Ser Asp Val Ser Ser Tyr Leu Glu Gly Gln Ala Ala Lys Glu Phe Ile Ala Trp Leu Val Lys Gly Arg Gly (EGTFTSDVSSYLEGQAAKEFIAWLVKGRG; listed as Homo sapiens) [Native GLP-1 9-37, reference compound]
Insulin release ([3]; 15 μM peptide): 3.25 ng/min/mg
Activity of 15 μM of each peptide as percentage of insulin release by cells only ([3]; 15 μM peptide): 123 ± 17%

HAEGTFTSDVSSYLEG [GLP-1 7-22]
state of peptide after 18 hr incubation with DPP-IV [5]: completely cleaved

L-His-L-NH-CH(CH3)-CH2-NH-O-CH2-C(O)-Glu9-37 (SP005) (peptide)
Activity of 15 µM of each peptide as percentage of insulin release by cells only (beta TC-6 cells) (% of insulin release by cells only) [4]: 358

dipeptidyl peptidase IV (DPP-IV) (Sigma) (enzyme)
percentage of each analogue remaining after incubation with DPP-IV (RP-HPLC), 22 hr [6]: < 5 % remaining
percentage of each analogue remaining after incubation with DPP-IV (RP-HPLC), 47 hr [7]: 93 % remaining
percentage of each analogue remaining after incubation with DPP-IV (RP-HPLC), 47 hr [8]: 93 % remaining
percentage of each analogue remaining after incubation with DPP-IV (RP-HPLC), 47 hr [9]: 87 % remaining
percentage of each analogue remaining after incubation with DPP-IV (RP-HPLC), 22 hr [10]: < 5 % remaining

GLP-1 NH2-D-His-D-Ala-Urea-9-37 (SP002) (peptide)
Activity of 15 µM of each peptide as percentage of insulin release by cells only (beta TC-6 cells) (% of insulin release by cells only) [4]: 254

L-His-NH-NH-CH(CH3)-C(O)-Glu9-37 (SP008) (peptide)
Activity of 15 µM of each peptide as percentage of insulin release by cells only (beta TC-6 cells) (% of insulin release by cells only) [4]: 170

CC[C@H](C)[C@H](NC(=O)[C@H](Cc1ccccc1)NC(=O)[C@H](CCC(=O)O)NC(=O)[C@H](CCCCN)NC(=O)[C@H](C)NC(=O)[C@H](C)NC(=O)[C@H](CCC(N)=O)NC(=O)CNC(=O)[C@H](CCC(=O)O)NC(=O)[C@H](CC(C)C)NC(=O)[C@H](Cc1ccc(O)cc1)NC(=O)[C@H](CO)NC(=O)[C@H](CO)NC(=O)[C@@H](NC(=O)[C@H](CC(=O)O)NC(=O)[C@H](CO)NC(=O)[C@@H](NC(=O)[C@H](Cc1ccccc1)NC(=O)[C@@H](NC(=O)CNC(=O)[C@H](CCC(=O)O)NC(=O)[C@H](C)NNC(=O)[C@@H](N)Cc1c[nH]cn1)[C@@H](C)O)[C@@H](C)O)C(C)C)C(=O)N[C@@H](C)C(=O)N[C@@H](Cc1c[nH]c2ccccc12)C(=O)N[C@@H](CC(C)C)C(=O)N[C@H](C(=O)N[C@@H](CCCCN)C(=O)NCC(=O)N[C@@H](CCCNC(=N)N)C(=O)NCC(=O)O)C(C)C [SP008, L-His-NH—NH—CH(CH3)—C(O)-Glu9-37]
remaining at 22 h [1]: 95%
remaining at 47 h [1]: 93%
remaining at 22 h [2]: 91%
remaining at 47 h ([2]; 47 hr): 77%
Insulin release ([3]; 3 μM peptide): 4.35 ng/min/mg
Activity of 3 μM of each peptide as percentage of insulin release by cells only ([3]; 3 μM peptide): 112 ± 44%
Insulin release ([3]; 15 μM peptide): 6.20 ng/min/mg
Activity of 15 μM of each peptide as percentage of insulin release by cells only ([3]; 15 μM peptide): 170 ± 48%

GLP-1 NH2-L-His-L-Ala-urea-9-37 (SP001) (peptide)
Activity of 15 µM of each peptide as percentage of insulin release by cells only (beta TC-6 cells) (% of insulin release by cells only) [4]: 100

L-His-L-Ala-NH-NH-CH2-C(O)-Glu9-37 (SP007) (peptide)
Activity of 15 µM of each peptide as percentage of insulin release by cells only (beta TC-6 cells) (% of insulin release by cells only) [4]: 235

CC[C@H](C)[C@H](NC(=O)[C@H](Cc1ccccc1)NC(=O)[C@H](CCC(=O)O)NC(=O)[C@H](CCCCN)NC(=O)[C@H](C)NC(=O)[C@H](C)NC(=O)[C@H](CCC(N)=O)NC(=O)CNC(=O)[C@H](CCC(=O)O)NC(=O)[C@H](CC(C)C)NC(=O)[C@H](Cc1ccc(O)cc1)NC(=O)[C@H](CO)NC(=O)[C@H](CO)NC(=O)[C@@H](NC(=O)[C@H](CC(=O)O)NC(=O)[C@H](CO)NC(=O)[C@@H](NC(=O)[C@H](Cc1ccccc1)NC(=O)[C@@H](NC(=O)CNC(=O)[C@H](CCC(=O)O)NC(=O)CNNC(=O)[C@@H](N)Cc1c[nH]cn1)[C@@H](C)O)[C@@H](C)O)C(C)C)C(=O)N[C@@H](C)C(=O)N[C@@H](Cc1c[nH]c2ccccc12)C(=O)N[C@@H](CC(C)C)C(=O)N[C@H](C(=O)N[C@@H](CCCCN)C(=O)NCC(=O)N[C@@H](CCCNC(=N)N)C(=O)NCC(=O)O)C(C)C [SP006, L-His-NH-NH-CH2-C(O)-Glu9-37]
remaining at 22 h [1]: 88%
remaining at 47 h [1]: 87%
percentage of peptide remaining ([2]; 47 hr): 88%
remaining at 22 h [2]: 88%
Insulin release ([3]; 3 μM peptide): 3.86 ng/min/mg
Activity of 3 μM of each peptide as percentage of insulin release by cells only ([3]; 3 μM peptide): 154 ± 25%
Insulin release ([3]; 15 μM peptide): 8.88 ng/min/mg
Activity of 15 μM of each peptide as percentage of insulin release by cells only ([3]; 15 μM peptide): 330 ± 89%
